Like-named read-outs stand apart in the source and are kept apart here. Where a SMILES comes first, the peptide text is derived from it. [ ]: non-standard residue; d: D form. Nle = CCCC[C@H](N)C(=O)O; Abu = CC[C@H](N)C(=O)O
Target: botox A (Clostridium botulinum, UniProt P0DPI1)
Format: biochemical
Parameters: Rate (initial rate of peptide hydrolysis) / Rate (initial rate of hydrolysis) In AcBSA: unit not given here
Conditions: for kcat: in 1/s

Chain of botox A (P0DPI1 2-448 limits assumed): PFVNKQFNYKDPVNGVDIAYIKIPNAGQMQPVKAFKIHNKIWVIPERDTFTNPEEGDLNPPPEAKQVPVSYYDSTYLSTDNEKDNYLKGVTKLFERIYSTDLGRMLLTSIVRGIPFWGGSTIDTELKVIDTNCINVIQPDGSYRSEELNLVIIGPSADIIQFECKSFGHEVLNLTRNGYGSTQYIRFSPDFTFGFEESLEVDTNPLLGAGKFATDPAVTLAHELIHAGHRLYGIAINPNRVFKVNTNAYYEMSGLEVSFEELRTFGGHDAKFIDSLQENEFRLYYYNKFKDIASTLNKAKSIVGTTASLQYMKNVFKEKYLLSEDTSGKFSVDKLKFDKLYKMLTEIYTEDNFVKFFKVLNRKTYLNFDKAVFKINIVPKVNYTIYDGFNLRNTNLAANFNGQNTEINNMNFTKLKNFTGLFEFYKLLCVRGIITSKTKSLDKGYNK

Compound | Relative Rate (initial hydrolysis rates relative to peptide [1-17]) | kcat | Km (read-out: Km) [µM] | hydrolysis by botox A, described in words | Kcat In AcBSA [s⁻¹] | Rate (initial rate of hydrolysis) In AcBSA | Rate (initial rate of hydrolysis) In BSA | Rate (initial rate of peptide hydrolysis) | Relative Rate | Km (read-out: Km In AcBSA) [µM] | further results
Ac-SNKTRIDEANQRATKAL-NH2 [M16A, S N K T R I D E A N Q R A T K A L] | .38 | 25 ± 1 | 1900 ± 100 |  |  |  |  |  |  |  | decrease in kcat compared with peptide [1-17]: ~50%
Ac-SNKTRIDQANQRATKML-NH2 [E8Q, S N K T R I D Q A N Q R A T K M L] | 2.08 | 51 ± 3 | 750 ± 40 | doubling of the rate of hydrolysis |  |  |  |  |  |  | decrease in Km compared with peptide [1-17]: about 50%
Ac-TRIDEANQRATKM-NH2 [13-residue peptide] |  |  |  |  |  |  |  |  |  |  | reduction in rate of botox A-catalyzed hydrolysis: 43%
Ac-SNKTRIDEANQRATAML-NH2 [K15A, S N K T R I D E A N Q R A T A M L] |  | ~8.0 | ~1000 | significantly lower hydrolysis rate |  |  |  |  |  |  | 
Ac-SNKTRIDEAQQRATKML-NH2 [N10Q, S N K T R I D E A Q Q R A T K M L] |  |  |  | No hydrolysis |  |  |  |  |  |  | 
Ac-SNKTRIDEANNRATKML-NH2 [Q11N, S N K T R I D E A N N R A T K M L] |  | 19 ± 3 | 750 ± 80 | slowed but did not eliminate hydrolysis |  |  |  |  |  |  | 
CC[C@H](NC(=O)[C@H](CCCNC(=N)N)NC(=O)[C@H](CC(N)=O)NC(=O)[C@H](CO)NC(C)=O)C(=O)N[C@@H](CCCNC(=N)N)C(=O)N[C@H](C(=O)N[C@@H](CC(=O)O)C(=O)N[C@@H](CCC(=O)O)C(=O)N[C@@H](C)C(=O)N[C@@H](CC(N)=O)C(=O)N[C@@H](CCC(N)=O)C(=O)N[C@@H](CCCNC(=N)N)C(=O)N[C@@H](C)C(=O)N[C@H](C(=O)N[C@@H](CCCNC(=N)N)C(=O)N[C@@H](CCSC)C(=O)N[C@@H](CC(C)C)C(N)=O)[C@@H](C)O)[C@@H](C)CC [peptide 3, S N R B R I D E A N Q R A T R M L] (Ac-SNR[Abu]RIDEANQRATRML-NH2) |  |  |  |  | 58 | 18 | 16 | 15.8 ± 0.8 | 2.1 | 320 | Kcat In BSA: 75 s⁻¹; Km (read-out: Km In BSA): 910 µM
CC[C@H](NC(=O)[C@H](CCCNC(=N)N)NC(=O)[C@H](CCC(N)=O)NC(=O)[C@H](CC(N)=O)NC(=O)[C@H](C)NC(=O)[C@H](CCC(=O)O)NC(=O)[C@H](CC(=O)O)NC(=O)[C@@H](NC(=O)[C@H](CCCNC(=N)N)NC(=O)[C@@H](NC(=O)[C@H](CCCCN)NC(=O)[C@H](CC(N)=O)NC(=O)[C@H](CO)NC(C)=O)[C@@H](C)O)[C@@H](C)CC)C(=O)N[C@H](C(=O)N[C@@H](CCCCN)C(=O)N[C@@H](CCSC)C(=O)N[C@@H](CC(C)C)C(N)=O)[C@@H](C)O [A13B, S N K T R I D E A N Q R B T K M L] (Ac-SNKTRIDEANQR[Abu]TKML-NH2) | .79 | 39 ± 2 | 1800 ± 100 |  |  |  |  |  |  |  | 
Ac-SNRTRIDEANQRATRML-NH2 [peptide 2, S N R T R I D E A N Q R A T R M L] |  |  |  | slightly faster than peptide 1 | 61 | 16 | 11 | 11.3 ± 0.5 | 1.5 | 530 | Kcat In BSA: 68 s⁻¹; Km (read-out: Km In BSA): 1400 µM
CC[C@H](NC(=O)[C@H](CCC(=O)O)NC(=O)[C@H](CC(=O)O)NC(=O)[C@@H](NC(=O)[C@H](CCCNC(=N)N)NC(=O)[C@@H](NC(=O)[C@H](CCCCN)NC(=O)[C@H](CC(N)=O)NC(=O)[C@H](CO)NC(C)=O)[C@@H](C)O)[C@@H](C)CC)C(=O)N[C@@H](CC(N)=O)C(=O)N[C@@H](CCC(N)=O)C(=O)N[C@@H](CCCNC(=N)N)C(=O)N[C@@H](C)C(=O)N[C@H](C(=O)N[C@@H](CCCCN)C(=O)N[C@@H](CCSC)C(=O)N[C@@H](CC(C)C)C(N)=O)[C@@H](C)O [A9B, S N K T R I D E B N Q R A T K M L] (Ac-SNKTRIDE[Abu]NQRATKML-NH2) |  | 11 ± 1 | 1100 ± 100 | still a good substrate |  |  |  |  |  |  | decrease in kcat compared with peptide [1-17]: about 75%
Ac-SNKTRIDEANQAATKML-NH2 [R12A, S N K T R I D E A N Q A A T K M L] | < 0.02 |  |  |  |  |  |  |  |  |  | 
Ac-SNRTRIDQANQRATRML-NH2 [compound 4, S N R T R I D Q A N Q R A T R M L] |  |  |  |  | 68 | 19 | 13 | 12.6 ± 0.5 | 1.7 | 470 | Kcat In BSA: 64 s⁻¹; Km (read-out: Km In BSA): 760 µM
CC[C@H](NC(=O)[C@H](CC(=O)O)NC(=O)[C@@H](NC(=O)[C@H](CCCNC(=N)N)NC(=O)[C@@H](NC(=O)[C@H](CCCNC(=N)N)NC(=O)[C@H](CC(N)=O)NC(=O)[C@H](CO)NC(C)=O)[C@@H](C)O)[C@@H](C)CC)C(=O)N[C@@H](C)C(=O)N[C@@H](CC(N)=O)C(=O)N[C@@H](CCC(N)=O)C(=O)N[C@@H](CCCNC(=N)N)C(=O)N[C@@H](C)C(=O)N[C@H](C(=O)N[C@@H](CCCNC(=N)N)C(=O)N[C@@H](CCSC)C(=O)N[C@@H](CC(C)C)C(N)=O)[C@@H](C)O [peptide 5, S N R T R I D B A N Q R A T R M L] (Ac-SNRTRID[Abu]ANQRATRML-NH2) |  |  |  |  | 70 | 21 | 13 | 12.9 ± 0.3 | 1.7 | 330 | Kcat In BSA: 69 s⁻¹; specific activity of type A toxin against the peptide: 21 µmol/min/mg; Km (read-out: Km In BSA): 740 µM
CC[C@H](NC(=O)[C@H](CCCNC(=N)N)NC(=O)[C@H](CC(N)=O)NC(=O)[C@H](CO)NC(C)=O)C(=O)N[C@@H](CCCNC(=N)N)C(=O)N[C@H](C(=O)N[C@@H](CC(=O)O)C(=O)N[C@@H](CCC(N)=O)C(=O)N[C@@H](C)C(=O)N[C@@H](CC(N)=O)C(=O)N[C@@H](CCC(N)=O)C(=O)N[C@@H](CCCNC(=N)N)C(=O)N[C@@H](C)C(=O)N[C@H](C(=O)N[C@@H](CCCNC(=N)N)C(=O)N[C@@H](CCSC)C(=O)N[C@@H](CC(C)C)C(N)=O)[C@@H](C)O)[C@@H](C)CC [peptide 7, S N R B R I D Q A N Q R A T R M L] (Ac-SNR[Abu]RIDQANQRATRML-NH2) |  |  |  |  | 73 | 22 | 14 | 14.1 ± 0.7 | 1.9 | 310 | 
Ac-SNKTRIDEANARATKML-NH2 [Q11A, S N K T R I D E A N A R A T K M L] | 0.19 |  |  | slowed but did not eliminate hydrolysis |  |  |  |  |  |  | 
Ac-SNKTRIDEANQRATKML-NH2 [[1-17], S N K T R I D E A N Q R A T K M L] |  | 47 ± 2 | 1700 ± 100 |  | 41 | 10 | 8 | 7.6 ± 0.3 | 1.0 | 590 | Kcat In BSA: 47 s⁻¹
Ac-SNKTRINEANQRATKML-NH2 [D7N, S N K T R I N E A N Q R A T K M L] | 0.23 | 5.0 ± 0.3 | 820 ± 60 |  |  |  |  |  |  |  | kcat as percent of that for peptide [1-17]: about 10%
CCCC[C@H](NC(=O)[C@H](CCCCN)NC(=O)[C@@H](NC(=O)[C@H](C)NC(=O)[C@H](CCCNC(=N)N)NC(=O)[C@H](CCC(N)=O)NC(=O)[C@H](CC(N)=O)NC(=O)[C@H](C)NC(=O)[C@H](CCC(=O)O)NC(=O)[C@H](CC(=O)O)NC(=O)[C@@H](NC(=O)[C@H](CCCNC(=N)N)NC(=O)[C@@H](NC(=O)[C@H](CCCCN)NC(=O)[C@H](CC(N)=O)NC(=O)[C@H](CO)NC(C)=O)[C@@H](C)O)[C@@H](C)CC)[C@@H](C)O)C(=O)N[C@@H](CC(C)C)C(N)=O [M16X, S N K T R I D E A N Q R A T K X L] (Ac-SNKTRIDEANQRATK[Nle]L-NH2) |  | 30 ± 1 | 580 ± 20 | hydrolyzed somewhat faster than the native-sequence peptide |  |  |  |  |  |  | 
Ac-SNKTRIDEANQRATKM-NH2 [[1-16], S N K T R I D E A N Q R A T K M] | .17 | 6 ± 4 | 1600 ± 100 | excellent substrate |  |  |  |  |  |  | 
CC[C@H](NC(=O)[C@H](C)NC(=O)[C@H](CCCNC(=N)N)NC(=O)[C@H](CCC(N)=O)NC(=O)[C@H](CC(N)=O)NC(=O)[C@H](C)NC(=O)[C@H](CCC(=O)O)NC(=O)[C@H](CC(=O)O)NC(=O)[C@@H](NC(=O)[C@H](CCCNC(=N)N)NC(=O)[C@@H](NC(=O)[C@H](CCCCN)NC(=O)[C@H](CC(N)=O)NC(=O)[C@H](CO)NC(C)=O)[C@@H](C)O)[C@@H](C)CC)C(=O)N[C@@H](CCCCN)C(=O)N[C@@H](CCSC)C(=O)N[C@@H](CC(C)C)C(N)=O [T14B, S N K T R I D E A N Q R A B K M L] (Ac-SNKTRIDEANQRA[Abu]KML-NH2) | 1.20 | 35 ± 2 | 1300 ± 100 | good substrate |  |  |  |  |  |  | 
CC[C@H](NC(=O)[C@H](CC(=O)O)NC(=O)[C@@H](NC(=O)[C@H](CCCNC(=N)N)NC(=O)[C@H](CC)NC(=O)[C@H](CCCNC(=N)N)NC(=O)[C@H](CC(N)=O)NC(=O)[C@H](CO)NC(C)=O)[C@@H](C)CC)C(=O)N[C@@H](C)C(=O)N[C@@H](CC(N)=O)C(=O)N[C@@H](CCC(N)=O)C(=O)N[C@@H](CCCNC(=N)N)C(=O)N[C@@H](C)C(=O)N[C@H](C(=O)N[C@@H](CCCNC(=N)N)C(=O)N[C@@H](CCSC)C(=O)N[C@@H](CC(C)C)C(N)=O)[C@@H](C)O [peptide 6, S N R B R I D B A N Q R A T R M L] (Ac-SNR[Abu]RID[Abu]ANQRATRML-NH2) |  |  |  | more than three times faster | 86 | 25 | 24 | 25.3 ± 0.7 | 3.3 | 400 | Kcat In BSA: 89 s⁻¹; Km (read-out: Km In BSA): 520 µM

Reference: US5965699A (priority 1996, dated 1999)
